Measured values as given in ChEMBL document CHEMBL4665869, “New thiazolopyrimidine as anticancer agents: Synthesis, biological evaluation, DNA binding, molecular modeling and ADMET study” (Bioorg Med Chem Lett, 2020).
In brackets after ≈: the same amount, converted by molar mass.

Legend:
[1] = tested on: LOX IMVI; assay: Growth inhibition of human LOX IMVI cells at 10 uM relative to control; type: functional; settings: read-out: GI
[2] = tested on: MDA-MB-468; assay: Growth inhibition of human MDA-MB-468 cells at 10 uM relative to control; type: functional; settings: read-out: GI
[3] = tested on: T47D; assay: Growth inhibition of human T47D cells at 10 uM relative to control; type: functional; settings: read-out: GI
[4] = tested on: CCRF-CEM; assay: Growth inhibition of human CCRF-CEM cells at 10 uM relative to control; type: functional; settings: read-out: GI
[5] = tested on: HL-60(TB); assay: Growth inhibition of human HL-60(TB) cells at 10 uM relative to control; type: functional; settings: read-out: GI
[6] = tested on: K562; assay: Growth inhibition of human K562 cells at 10 uM relative to control; type: functional; settings: read-out: GI
[7] = tested on: MOLT-4; assay: Growth inhibition of human MOLT-4 cells at 10 uM relative to control; type: functional; settings: read-out: GI
[8] = tested on: RPMI-8226; assay: Growth inhibition of human RPMI-8226 cells at 10 uM relative to control; type: functional; settings: read-out: GI
[9] = tested on: SR; assay: Growth inhibition of human SR cells at 10 uM relative to control; type: functional; settings: read-out: GI
[10] = tested on: A549; assay: Growth inhibition of human A549 cells at 10 uM relative to control; type: functional; settings: read-out: GI
[11] = tested on: HOP-62; assay: Growth inhibition of human HOP-62 cells at 10 uM relative to control; type: functional; settings: read-out: GI
[12] = tested on: HOP-92; assay: Growth inhibition of human HOP-92 cells at 10 uM relative to control; type: functional; settings: read-out: GI
[13] = tested on: NCI-H226; assay: Growth inhibition of human NCI-H226 cells at 10 uM relative to control; type: functional; settings: read-out: GI
[14] = tested on: NCI-H23; assay: Growth inhibition of human NCI-H23 cells at 10 uM relative to control; type: functional; settings: read-out: GI
[15] = tested on: NCI-H322M; assay: Growth inhibition of human NCI-H322M cells at 10 uM relative to control; type: functional; settings: read-out: GI
[16] = tested on: NCI-H460; assay: Growth inhibition of human NCI-H460 cells at 10 uM relative to control; type: functional; settings: read-out: GI
[17] = tested on: NCI-H522; assay: Growth inhibition of human NCI-H522 cells at 10 uM relative to control; type: functional; settings: read-out: GI
[18] = tested on: SW-620; assay: Growth inhibition of human SW-620 cells at 10 uM relative to control; type: functional; settings: read-out: GI
[19] = tested on: COLO 205; assay: Growth inhibition of human COLO 205 cells at 10 uM relative to control; type: functional; settings: read-out: GI
[20] = tested on: HCC 2998; assay: Growth inhibition of human HCC 2998 cells at 10 uM relative to control; type: functional; settings: read-out: GI
[21] = tested on: HCT-116; assay: Growth inhibition of human HCT-116 cells at 10 uM relative to control; type: functional; settings: read-out: GI
[22] = tested on: HCT-15; assay: Growth inhibition of human HCT-15 cells at 10 uM relative to control; type: functional; settings: read-out: GI
[23] = tested on: HT-29; assay: Growth inhibition of human HT-29 cells at 10 uM relative to control; type: functional; settings: read-out: GI
[24] = tested on: KM12; assay: Growth inhibition of human KM12 cells at 10 uM relative to control; type: functional; settings: read-out: GI
[25] = tested on: SF-268; assay: Growth inhibition of human SF-268 cells at 10 uM relative to control; type: functional; settings: read-out: GI
[26] = tested on: SF-295; assay: Growth inhibition of human SF-295 cells at 10 uM relative to control; type: functional; settings: read-out: GI
[27] = tested on: SF-539; assay: Growth inhibition of human SF-539 cells at 10 uM relative to control; type: functional; settings: read-out: GI
[28] = tested on: SNB-19; assay: Growth inhibition of human SNB-19 cells at 10 uM relative to control; type: functional; settings: read-out: GI
[29] = tested on: SNB-75; assay: Growth inhibition of human SNB-75 cells at 10 uM relative to control; type: functional; settings: read-out: GI
[30] = tested on: U-251; assay: Growth inhibition of human U-251 cells at 10 uM relative to control; type: functional; settings: read-out: GI
[31] = tested on: Malme-3M; assay: Growth inhibition of human Malme-3M cells at 10 uM relative to control; type: functional; settings: read-out: GI
[32] = tested on: M14; assay: Growth inhibition of human M14 cells at 10 uM relative to control; type: functional; settings: read-out: GI
[33] = tested on: MDA-MB-435; assay: Growth inhibition of human MDA-MB-435 cells at 10 uM relative to control; type: functional; settings: read-out: GI
[34] = tested on: SK-MEL-2; assay: Growth inhibition of human SK-MEL-2 cells at 10 uM relative to control; type: functional; settings: read-out: GI
[35] = tested on: SK-MEL-28; assay: Growth inhibition of human SK-MEL-28 cells at 10 uM relative to control; type: functional; settings: read-out: GI
[36] = tested on: SK-MEL-5; assay: Growth inhibition of human SK-MEL-5 cells at 10 uM relative to control; type: functional; settings: read-out: GI
[37] = tested on: UACC-257; assay: Growth inhibition of human UACC-257 cells at 10 uM relative to control; type: functional; settings: read-out: GI
[38] = tested on: UACC-62; assay: Growth inhibition of human UACC-62 cells at 10 uM relative to control; type: functional; settings: read-out: GI
[39] = tested on: IGROV-1; assay: Growth inhibition of human IGROV-1 cells at 10 uM relative to control; type: functional; settings: read-out: GI
[40] = tested on: OVCAR-4; assay: Growth inhibition of human OVCAR-4 cells at 10 uM relative to control; type: functional; settings: read-out: GI
[41] = tested on: OVCAR-5; assay: Growth inhibition of human OVCAR-5 cells at 10 uM relative to control; type: functional; settings: read-out: GI
[42] = tested on: OVCAR-8; assay: Growth inhibition of human OVCAR-8 cells at 10 uM relative to control; type: functional; settings: read-out: GI
[43] = tested on: NCI/ADR-RES; assay: Growth inhibition of human NCI/ADR-RES cells at 10 uM relative to control; type: functional; settings: read-out: GI
[44] = tested on: SK-OV-3; assay: Growth inhibition of human SK-OV-3 cells at 10 uM relative to control; type: functional; settings: read-out: GI
[45] = tested on: 786-0; assay: Growth inhibition of human 786-0 cells at 10 uM relative to control; type: functional; settings: read-out: GI
[46] = tested on: A498; assay: Growth inhibition of human A498 cells at 10 uM relative to control; type: functional; settings: read-out: GI
[47] = tested on: ACHN; assay: Growth inhibition of human ACHN cells at 10 uM relative to control; type: functional; settings: read-out: GI
[48] = tested on: CAKI-1; assay: Growth inhibition of human CAKI-1 cells at 10 uM relative to control; type: functional; settings: read-out: GI
[49] = tested on: RXF 393; assay: Growth inhibition of human RXF 393 cells at 10 uM relative to control; type: functional; settings: read-out: GI
[50] = tested on: SN12C; assay: Growth inhibition of human SN12C cells at 10 uM relative to control; type: functional; settings: read-out: GI
[51] = tested on: TK-10; assay: Growth inhibition of human TK-10 cells at 10 uM relative to control; type: functional; settings: read-out: GI
[52] = tested on: UO-31; assay: Growth inhibition of human UO-31 cells at 10 uM relative to control; type: functional; settings: read-out: GI
[53] = tested on: PC-3; assay: Growth inhibition of human PC-3 cells at 10 uM relative to control; type: functional; settings: read-out: GI
[54] = tested on: DU-145; assay: Growth inhibition of human DU-145 cells at 10 uM relative to control; type: functional; settings: read-out: GI
[55] = tested on: MCF7; assay: Growth inhibition of human MCF7 cells at 10 uM relative to control; type: functional; settings: read-out: GI
[56] = tested on: MDA-MB-231; assay: Growth inhibition of human MDA-MB-231 cells at 10 uM relative to control; type: functional; settings: read-out: GI
[57] = tested on: Hs-578T; assay: Growth inhibition of human Hs-578T cells at 10 uM relative to control; type: functional; settings: read-out: GI
[58] = tested on: BT-549; assay: Growth inhibition of human BT-549 cells at 10 uM relative to control; type: functional; settings: read-out: GI
[59] = target: DNA; assay: Displacement of methyl green from DNA (unknown origin) assessed as DNA intercalation after 24 hrs by colorimetric assay; type: nucleic-acid assay

C1=CN2C(=NC(/C=C/c3cccs3)=CC2c2cccs2)S1 (centres undefined)
inhibition of growth at 10 µM [1]: < 10% | inhibition of growth at 10 µM [2]: < 10% | inhibition of growth at 10 µM [3]: < 10% | inhibition of growth at 10 µM [4]: < 10% | inhibition of growth at 10 µM [5]: < 10% | inhibition of growth at 10 µM [6]: < 10% | inhibition of growth at 10 µM [7]: < 10% | inhibition of growth at 10 µM [8]: < 10% | inhibition of growth at 10 µM [9]: < 10% | inhibition of growth at 10 µM [10]: < 10% | inhibition of growth at 10 µM [11]: < 10% | inhibition of growth at 10 µM [12]: < 10% | inhibition of growth at 10 µM [13]: < 10% | inhibition of growth at 10 µM [14]: < 10% | inhibition of growth at 10 µM [15]: < 10% | inhibition of growth at 10 µM [16]: < 10% | inhibition of growth at 10 µM [17]: < 10% | inhibition of growth at 10 µM [18]: < 10% | inhibition of growth at 10 µM [19]: < 10% | inhibition of growth at 10 µM [20]: < 10% | inhibition of growth at 10 µM [21]: < 10% | inhibition of growth at 10 µM [22]: < 10% | inhibition of growth at 10 µM [23]: < 10% | inhibition of growth at 10 µM [24]: < 10% | inhibition of growth at 10 µM [25]: < 10% | inhibition of growth at 10 µM [26]: < 10% | inhibition of growth at 10 µM [27]: < 10% | inhibition of growth at 10 µM [28]: < 10% | inhibition of growth at 10 µM [29]: 12.3% | inhibition of growth at 10 µM [30]: < 10% | inhibition of growth at 10 µM [31]: < 10% | inhibition of growth at 10 µM [32]: < 10% | inhibition of growth at 10 µM [33]: < 10% | inhibition of growth at 10 µM [34]: < 10% | inhibition of growth at 10 µM [35]: < 10% | inhibition of growth at 10 µM [36]: < 10% | inhibition of growth at 10 µM [37]: < 10% | inhibition of growth at 10 µM [38]: < 10% | inhibition of growth at 10 µM [39]: < 10% | inhibition of growth at 10 µM [40]: < 10% | inhibition of growth at 10 µM [41]: < 10% | inhibition of growth at 10 µM [42]: < 10% | inhibition of growth at 10 µM [43]: < 10% | inhibition of growth at 10 µM [44]: < 10% | inhibition of growth at 10 µM [45]: < 10% | inhibition of growth at 10 µM [46]: < 10% | inhibition of growth at 10 µM [47]: < 10% | inhibition of growth at 10 µM [48]: < 10% | inhibition of growth at 10 µM [49]: < 10% | inhibition of growth at 10 µM [50]: < 10% | inhibition of growth at 10 µM [51]: < 10% | inhibition of growth at 10 µM [52]: < 10% | inhibition of growth at 10 µM [53]: < 10% | inhibition of growth at 10 µM [54]: < 10% | inhibition of growth at 10 µM [55]: < 10% | inhibition of growth at 10 µM [56]: < 10% | inhibition of growth at 10 µM [57]: < 10% | inhibition of growth at 10 µM [58]: < 10% | IC50 [59]: 33.67 µg/mL (≈ 103 µM)
